Among the data in patent publication EP0942896B1, “SUBSTITUTED PHENOLS AND THIOPHENOLS USEFUL AS ANTIOXIDANT AGENTS” (Aventis Pharmaceuticals Inc., priority 1996, dated 1998) are inhibition and concentration values, retold here.

For series [1], the system named is ICAM-1. The experiment in a line: Inhibition of cytokine-induced ICAM-1 expression in human aortic smooth muscle cells (cell ELISA). Format: cell-based. The settings on record: HASMC, tumor necrosis factor-alpha stimulated, average of two runs, numbers in parentheses represent negative values, read-out: ICAM-1 (% inh. 50 µM). As to the method:
(§1) Plate proliferating human umbilical vein endothelial cells (HUVEC) or human aortic smooth muscle cells (HASMC) from Clonetics (San Diego, CA) onto 96-well plates in 100 µL medium per well at 20,000 cells per cm^2. Maintain the cultures in growth medium (EGM or SMGM2, Clonetics, San Diego, CA) for two days prior to addition of cytokines or drugs. Add cytokines plus or minus compounds for 20 to 24 hours prior to analysis for adhesion molecule levels. Add tumor necrosis factor (Genzyme, Cambridge, MA) to cultures at 500-1000 units/mL to stimulate ICAM-1 expression. Add interleukin-4 (GIBCO-BRL, Gaithersburg, MD) to cultures at 100-200 pg/mL to stimulate VCAM-1 expression. […] Remove the culture medium, and wash the monolayers twice with Hanks buffered saline solution (HBSS) at room temperature. Add the primary antibody (anti-human VCAM-1 from Upstate Biotechnology, Inc., Lake Placid, NY or anti-human ICAM-1 from Immunotech, Inc., Westbrook, ME) to each well (1 µg/mL in HBSS plus 5% newborn calf serum, GIBCO-BRL, Gaithersburg, MD) and incubate at 37°C for 1 hr. Wash the wells twice with HBSS, then add 100 µL of a 1/1000 dilution of goat anti-mouse IgG conjugated to horse radish peroxidase (BioRad, Hercules, CA) in HBSS plus 5% newborn calf serum to each well and incubated for 1 hr at 37°C. Wash the wells three times with HBSS, then add 100 µL of TMB substrate (BioRad, Hercules, CA) to each well. Stop the reaction after blue color develops by addition of 50 µL of IN H2SO4. Measure absorbance at 450 nm with a plate reader.
Table 1 summarizes the ability of selected compounds of this invention to inhibit VCAM-1 and ICAM-1 using human aortic smooth muscle cells (HASMC). In these experiments, the cells were coincubated with interleukin-4 to stimulate VCAM-1 expression and with tumor necrosis factor-alpha to stimulate ICAM-1 expression.

In series [2] the test system is ICAM-1. The experiment in a line: Inhibition of ICAM-1 expression in proliferating human umbilical vein endothelial cells (cell ELISA). It is filed as cell-based. Conditions: HUVEC, coincubated with tumor necrosis factor-alpha about 20 to 24 hr, average of two runs, read-out: ICAM-1 (% inh. 50 µM). As to the method: as §1, with “reader. […] In these experiments, the cells were coincubated with tumor necrosis factor-alpha along with the indicated compounds about 20 to 24 hr before assaying cell surface adhesion molecule expression.” for “reader.”

Series [3] can be described thus: HPLC quantitation of compound and metabolite concentration in rat serum and liver. Conditions: male, Sprague-Dawley, oral, 0.3 % in chow, diet 0.3%, 4 days, mean N = 5. It is filed as in vivo. The text has this:
A typical experiment consists of 4-6 groups of rats (N = 5 per group) with I group being a control which receives no MDL compound and the other groups being treated with 0.3% MDL compound. Some of the compounds are either repeated at 0.3% or evaluated again at the lower dose of 0.1%. House Male Sprague-Dawley rats, 50-100 g, (Harlan Laboratories, Indianapolis, IN) in groups of 5, feeding ad libitum water and Purina Rodent chow (#5002) with or without MDL compound as a dietary admixture for 4 days. Make dietary admixtures (0.3%) by mixing 1.2 grams of an MDL compound with 400 grams of Purina rodent chow (#5002). Mix the MDL compound with approximately 50 grams of food using a mortar and pestle. This is added to the remainder of the food and mixed for 3 hours on a rotary mixer. In the morning of day 5, anesthetize non-fasted rats with carbon dioxide, and collect blood by cardiac puncture. Sacrifice rats by cervical dislocation. Record body weights and liver weights in grams. Record food consumption as grams • day^-1 • rat^-1. Deaths are recorded as mortality. Use aliquots of fresh serum for clinical chemistries, thiobarbituric acid reactive substances (TBARS) and conjugated diene measurements. Freeze aliquots of serum (∼ 0.5mL) and whole livers at -20°C for compound and metabolite concentration determination at a later time.
Determine serum and liver concentrations of parent compound and the metabolites, bisphenol and diphenoquinone, by reverse phase HPLC using a Waters 990 Powerline system. Homegenize livers (1 gram samples) with 5.0mL PBS, pH 7.4, using a Polytron tissue homogenizer at setting 5 for 20-30 seconds. Extract serum or liver homogenates as follows: add 100µL of either serum or homogenate to 2.0mL diethyl ether: ethanol (3:1) while vortexing the tube. Cap the sample tubes and centrifuge for 10 min at 5°C at 3500 rpm in a Beckman GPKR centrifuge with a GH 3.7 rotor. Transfer the supernatants to clean tubes and dry under N2. Reconstitute samples with 200µL of acetonitrile : hexane : 0.1 M ammonium acetate (90: 6.5 : 3.5, by vol.). Then, inject 100µL onto a Waters Deltapak C18-300 Å column, and elute with an 83% acetonitrile : 17% water mobile phase at a flow rate of 1.5mL/min. Record absorbances at the wavelengths of 240, 254, and 420nm. Calculate compound concentrations from known quantities of authentic parent compounds after correction for recovery. […]. Calculate concentrations as µg/mL of serum and µg/g of liver.

Where [4] appears, read: parent compound concentration in rat liver, read-out: Liver Parent.
Where [5] appears, read: parent compound concentration in rat serum, read-out: Serum Parent.

Where two headings read alike, the source gives them in different places.

In the case of `CC(C)CCCC(C)CCOc1ccc(O)c(C(C)(C)C)c1` (centres unmarked) [MDL 104,191, Phenol, 2-(1,1-dimethylethyl)-4-[(3,7-dimethyloctyl)oxy]-], the inhibition at 50 µM in series [1] turned out to be 22%; in series [2], 70.5%. Moreover, the concentration at 5 day was 16100 ng/g in series [3] (setting [4]) and 6900 ng/mL in series [3] (setting [5]).

Consider `CC(C)=CCC[C@H](C)CCOc1cc(C(C)(C)C)c(O)c(C(C)(C)C)c1` [MDL 103,294, Phenol, 2,6-bis(1,1-dimethylethyl)-4-[(3,7-dimethyl-6-octenyl)oxy]-, (S)-], for which the concentration at 5 day amounted to 64600 ng/g in series [3] (setting [4]) and 21700 ng/mL in series [3] (setting [5]).

In the case of `CC(C)=CCC[C@@H](C)CCOc1cc(C(C)(C)C)c(O)c(C(C)(C)C)c1` [MDL 104,535, Phenol, 2,6-bis(1,1-dimethylethyl)-4-[(3,7-dimethyl-6-octenyl)oxy]-,(R)-], the inhibition at 50 µM in series [1] stood at 10%; in series [2], 11.5%. In addition, the results for the concentration at 5 day in series [3] (setting [4]) and in series [3] (setting [5]) were 60300 ng/g and 16300 ng/mL, respectively.

On to `CC(C)=CCCC(C)CCSc1cc(C(C)(C)C)c(O)c(C(C)(C)C)c1` (centres unmarked) [MDL 103,960, Phenol, 2,6-bis(1,1-dimethylethyl)-4-[(3,7-dimethyl-6-octenyl)thio]-], for which the inhibition at 50 µM in series [1] amounted to 0%; in series [2], 9.5%. The concentration at 5 day in series [3] (setting [4]) amounted to 47300 ng/g; in series [3] (setting [5]), 8700 ng/mL.
